Measured values reported in ChEMBL document CHEMBL1131315, “Synthesis and anticonvulsant activity of 2(3H)-benzoxazolone and 2(3H)-benzothiazolone derivatives” (J Med Chem, 1998).
Activity calls are given as the source filed them. No cut-off for these calls is given here.

Experiments:
Mus musculus [1] = assay: Time of peak effect in mice following i.p. administration.; assay type: functional
Mus musculus [2] = assay: The compound was tested for anticonvulsant activity in Maximal electroshock seizure test (MES) for 4 hr in mice(ip); no activity or toxicity at 300 mg/kg; assay type: functional, organism-based; design: dose 300 mg/kg
Mus musculus [3] = assay: Anticonvulsant activity in Maximal electroshock seizure test at 100 mg/kg i.p. in mice.; assay type: functional, organism-based; design: dose 100 mg/kg
Mus musculus [4] = assay: The compound was tested to inhibit 50% of induced maximal electroshock seizure in mice on ip administration.; assay type: functional
Mus musculus [5] = assay: Inhibition of s.c. pentylenetetrazole induced seizure in mice following i.p. administration.; assay type: functional
Mus musculus [6] = assay: (§1) The compound was determined for the dose (mg/kg) by rotarod test at the time of peak neurotoxic effect in mice on ip administration.; assay type: functional
Mus musculus [7] = assay: The compound was tested for anticonvulsant activity in subcutaneous pentylenetetrazole seizure test (sc Met) for 30 min in mice; active at 300 mg/kg; assay type: functional, organism-based; design: dose 300 mg/kg
Mus musculus [8] = assay: The anticonvulsant activity in subcutaneous pentylenetetrazole seizure test (sc Met) for 4 hr in mice; no activity or no toxicity at 300 mg/kg; assay type: functional, organism-based; design: dose 300 mg/kg
[9] = The compound was tested for neurologic toxicity (rotarod) test for 30 min in mice; active at 100 mg/kg; assay type: organism-based; design: dose 100 mg/kg; conditions: mouse, in vivo, 0.5 h
[10] = The compound was tested for time of peak effect (TPE) in hours for its toxicity in mice on ip administration.; assay type: organism-based; conditions: mouse, in vivo
[11] = The compound was tested for neurologic toxicity (rotarod) test for 4 hours in mice; no activity or no toxicity at 300 mg/kg; assay type: organism-based; design: dose 300 mg/kg; conditions: mouse, in vivo
Mus musculus [12] = assay: The compound was tested for anticonvulsant activity in Maximal electroshock seizure test (MES) for 4 hr in mice(ip); active at 300 mg/kg; assay type: functional, organism-based; design: dose 300 mg/kg
Mus musculus [13] = assay: Anticonvulsant activity in subcutaneous pentylenetetrazole seizure test for 30 min in mice; No activity/toxicity at 300 mg/kg.; assay type: functional, organism-based; design: dose 300 mg/kg
[14] = The compound was tested for neurologic toxicity (rotarod) test for 30 min in mice; active at 300 mg/kg; assay type: organism-based; design: dose 300 mg/kg; conditions: mouse, in vivo, 0.5 h
Mus musculus [15] = assay: The compound was tested for anticonvulsant activity in Maximal electroshock seizure test (MES) for 4 hr in mice(ip); active at 100 mg/kg; assay type: functional, organism-based; design: dose 100 mg/kg
Mus musculus [16] = assay: The compound was tested for anticonvulsant activity in subcutaneous pentylenetetrazole seizure test (sc Met) for 4 hr in mice; active at 300 mg/kg; assay type: functional, organism-based; design: dose 300 mg/kg
[17] = The compound was tested for neurologic toxicity (rotarod) test for 4 hours in mice; active at 300 mg/kg; assay type: organism-based; design: dose 300 mg/kg; conditions: mouse, in vivo
[18] = The compound was tested for neurologic toxicity (rotarod) test for 30 min in mice; no activity or no toxicity at 300 mg/kg; assay type: organism-based; design: dose 300 mg/kg; conditions: mouse, in vivo, 0.5 h
Mus musculus [19] = assay: The compound was tested for anticonvulsant activity in Maximal electroshock seizure test for 30 min in mice(ip); active at 30 mg/kg; assay type: functional, organism-based; design: dose 30 mg/kg
Sigma 2 receptor = assay: Affinity on sigma 2 receptor using [3H]- DTG as radioligand
[20] = target: Sigma non-opioid intracellular receptor 1 (Homo sapiens) (UniProt Q99720); assay: Ratio between the Ki(nM)values of sigma-2 and sigma-1; assay type: functional
[21] = as §1; assay type: ADME, organism-based; conditions: mouse, in vivo
Rattus norvegicus = assay: The compound was tested for the effective oral dose to inhibit 50% of the anticonvulsant in rats.; assay type: functional
Mus musculus [22] = assay: The compound was tested for anticonvulsant activity in subcutaneous pentylenetetrazole seizure test (sc Met) for 30 min in mice; active at 100 mg/kg; assay type: functional, organism-based; design: dose 100 mg/kg
Mus musculus [23] = assay: The compound was tested to inhibit 50% of induced maximal electroshock seizure in mice on ip administration; assay type: functional

Sequence of Sigma non-opioid intracellular receptor 1 (Homo sapiens) (Q99720 whole entry): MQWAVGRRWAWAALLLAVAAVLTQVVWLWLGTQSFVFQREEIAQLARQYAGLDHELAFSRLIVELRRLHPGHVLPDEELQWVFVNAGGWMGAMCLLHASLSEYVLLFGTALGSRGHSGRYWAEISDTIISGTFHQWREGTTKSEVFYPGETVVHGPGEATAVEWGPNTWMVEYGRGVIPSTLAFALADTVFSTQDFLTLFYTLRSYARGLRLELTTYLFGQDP

Structure (SMILES)	Activity (Mus musculus [1])	MES (Mus musculus [2])	MES (Mus musculus [3])	ED50 (Mus musculus [5])	scMet (Mus musculus [8])	Rotarod toxicity [9]	Toxicity [10]	Rotarod toxicity [11]	MES (Mus musculus [12])	scMet (Mus musculus [13])	other results
CCC(=O)c1ccc2c(c1)sc(=O)n2CCN1CCOCC1	0.25 h	No activity or toxicity at 300 mg/kg	No activity or toxicity at 300 mg/kg	> 300 mg/kg	active at 300 mg/kg	active at 100 mg/kg	0.25 h	active at 100 mg/kg			ED50 (Mus musculus [4]): 62.1 mg/kg; TD50 (Mus musculus [6]): 239 mg/kg; scMet (Mus musculus [7]): active at 300 mg/kg
CCCCC(=O)c1ccc2c(c1)oc(=O)n2CCCN1CCCCC1			active at 300 mg/kg		No activity or no toxicity at 300 mg/kg	active at 100 mg/kg		active at 100 mg/kg	active at 300 mg/kg	No activity or no toxicity at 300 mg/kg	
O=c1[nH]c2ccccc2o1 [BENZOXAZOLINONE]		No activity or toxicity at 300 mg/kg	No activity or toxicity at 300 mg/kg		No activity or no toxicity at 300 mg/kg			active at 300 mg/kg		No activity or no toxicity at 300 mg/kg	Rotarod toxicity [14]: active at 300 mg/kg
CCCc1ccc2nc(O)sc2c1			active at 100 mg/kg			active at 100 mg/kg					MES (Mus musculus [15]): active at 100 mg/kg; scMet (Mus musculus [7]): active at 300 mg/kg; scMet (Mus musculus [16]): active at 300 mg/kg; Rotarod toxicity [17]: active at 100 mg/kg
CCCCC(=O)c1ccc2c(c1)oc(=O)n2CCN1CCCCC1		No activity or toxicity at 300 mg/kg	No activity or toxicity at 300 mg/kg		No activity or no toxicity at 300 mg/kg	active at 100 mg/kg		active at 100 mg/kg		No activity or no toxicity at 300 mg/kg	
O=C(c1ccccc1)c1ccc2nc(O)oc2c1		No activity or toxicity at 300 mg/kg	No activity or toxicity at 300 mg/kg		No activity or no toxicity at 300 mg/kg			No activity or no toxicity at 300 mg/kg		No activity or no toxicity at 300 mg/kg	Rotarod toxicity [18]: No activity or no toxicity at 300 mg/kg
CCC(=O)c1ccc2c(c1)sc(=O)n2CCN1CCCC1	0.25 h	active at 30 mg/kg		> 80 mg/kg	No activity or no toxicity at 300 mg/kg	active at 100 mg/kg	0.25 h	active at 100 mg/kg		No activity or no toxicity at 300 mg/kg	MES (Mus musculus [19]): active at 30 mg/kg; ED50 (Mus musculus [4]): 13.9 mg/kg; Ki (Sigma 2 receptor): 919 nM; Ratio [20]: 1.6; TD50 [21]: 48.4 mg/kg
CCCC(CCC)C(=O)O [VALPROIC ACID]				149 mg/kg							ED50 (Rattus norvegicus): 490 mg/kg
CCCc1ccc2nc(O)oc2c1			active at 300 mg/kg		active at 100 mg/kg	active at 100 mg/kg			active at 300 mg/kg		scMet (Mus musculus [22]): active at 100 mg/kg; Rotarod toxicity [17]: active at 100 mg/kg
CCC(=O)c1ccc2c(c1)sc(=O)n2CCN(C)C	0.25 h			> 130 mg/kg	No activity or no toxicity at 300 mg/kg		0.25 h		active at 30 mg/kg	No activity or no toxicity at 300 mg/kg	MES (Mus musculus [19]): active at 30 mg/kg; ED50 (Mus musculus [4]): 21.8 mg/kg; TD50 (Mus musculus [6]): 84.5 mg/kg; Rotarod toxicity [14]: active at 300 mg/kg; Rotarod toxicity [17]: active at 300 mg/kg
CCCCCc1ccc2nc(O)oc2c1	0.5 h		active at 300 mg/kg	80.7 mg/kg	active at 100 mg/kg	active at 100 mg/kg	1 h	active at 100 mg/kg	active at 300 mg/kg		ED50 (Mus musculus [23]): 70.8 mg/kg; scMet (Mus musculus [22]): active at 100 mg/kg; TD50 [21]: 168 mg/kg
